Test results: patent publication US6737383B1, “Herbicidal oxadiazolidines” (priority 1999, dated 2004)

Assays:
[1] = test system: crabgrass; experiment: Test B pre/postemergence crabgrass; type: in vivo, Digitaria sanguinalis
Procedure, shortened: (§1)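 Response is a visual 0-to-10 score relative to untreated plants, where 0 means no effect and 10 means complete control, taken twelve to sixteen days after application. Treatments went onto soil at planting and onto foliage of 1- to 4-leaf plants, using a surfactant-containing non-phytotoxic solvent.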

[2] = test system: corn; experiment: Test B pre/postemergence corn; type: in vivo, Zea mays
Procedure, shortened: as §1

[3] = test system: cocklebur; experiment: Test B pre/postemergence cocklebur; type: in vivo, Xanthium strumarium
Procedure, shortened: as §1

[4] = test system: surinam grass; experiment: Test B pre/postemergence surinam grass; type: in vivo, Brachiaria decumbens
Procedure, shortened: as §1

[5] = Postemergence, Rate 62 g/ha, scale 0 to 10, 0 is no effect, 10 is complete control
[6] = Preemergence, Rate 125 g/ha, scale of 0 to 10 where 0 is no effect and 10 is complete control
[7] = Preemergence, Rate 250 g/ha, scale 0 (no effect) to 10 (complete control)
[8] = Rate 62 g/ha, Preemergence, scale 0 to 10
[9] = Rate 250 g/ha, Postemergence, scale 0 to 10, 0 is no effect, 10 is complete control
[10] = Rate 500 g/ha, Preemergence, scale 0 to 10 (0 no effect, 10 complete control)
[11] = Postemergence, Rate 125 g/ha, scale of 0 to 10 where 0 is no effect and 10 is complete control
[12] = Rate 500 g/ha, Postemergence, scale 0 to 10, 0 is no effect, 10 is complete control
[13] = Preemergence, Rate 62 g/ha, scale of 0 to 10 where 0 is no effect and 10 is complete control
[14] = Postemergence, Rate 250 g/ha, scale of 0 to 10, 0 is no effect, 10 is complete control
[15] = Postemergence, Rate 500 g/ha, scale of 0 to 10 where 0 is no effect and 10 is complete control
[16] = Postemergence, Rate 1000 g/ha, scale 0 to 10 (0 no effect, 10 complete control)
[17] = Preemergence, Rate 250 g/ha, scale 0 to 10 (0 no effect, 10 complete control)
[18] = Preemergence, Rate 500 g/ha, scale of 0 to 10 where 0 is no effect and 10 is complete control
[19] = Rate 1000 g/ha, Preemergence, scale 0 to 10 (0 no effect, 10 complete control)
[20] = Preemergence, Rate 250 g/ha, scale of 0 to 10 where 0 is no effect and 10 is complete control
[21] = Rate 62 g/ha, Postemergence, scale 0 to 10 (0 no effect, 10 complete control)
[22] = Rate 125 g/ha, Postemergence, scale of 0 to 10 where 0 is no effect and 10 is complete control
[23] = Rate 250 g/ha, Postemergence, scale of 0 to 10 where 0 is no effect and 10 is complete control
[24] = Rate 500 g/ha, Postemergence, scale 0 to 10, 0 no effect, 10 complete control

CC(C)N(C(=O)n1oc(=O)n(CCN(C)C(=O)c2ccccc2)c1=O)c1ccc(F)cc1 [Compound 741]
10: Crabgrass plant response rating [1, 10]
0: Plant response rating, Corn [2, 5] | Corn plant response rating [2, 11] | Plant response rating, Corn [2, 6] | Corn plant response rating [2, 7] | Corn plant response rating [2, 8] | Corn plant response rating [2, 9] | Corn plant response rating [2, 12] | Corn plant response rating [2, 10] | Plant response rating, Cocklebur [3, 5] | Cocklebur plant response rating [3, 11] | Plant response rating, Cocklebur [3, 6] | Cocklebur plant response rating [3, 7] | Cocklebur plant response rating [3, 8] | Cocklebur plant response rating [3, 9] | Cocklebur plant response rating [3, 12] | Plant response rating, B. signalgrass [4, 5] | B. signalgrass plant response rating [4, 11] | B. signalgrass plant response rating [4, 13] | Plant response rating, B. signalgrass [4, 6]
2: B. signalgrass plant response rating [4, 7] | B. signalgrass plant response rating [4, 10]
9: Plant response rating, Crabgrass [1, 5] | Crabgrass plant response rating [1, 9]
4: B. signalgrass plant response rating [4, 9]
5: Plant response rating, Crabgrass [1, 6] | Crabgrass plant response rating [1, 7] | Crabgrass plant response rating [1, 8]

COC(=O)C(C)n1c(=O)on(C(=O)N(c2ccc(F)cc2)C(C)C)c1=O (stereo not shown) [Compound 616]
0: Crabgrass plant response rating [1, 6] | Plant response rating, Crabgrass [1, 17] | Plant response rating, Corn [2, 11] | Corn plant response rating [2, 14] | Plant response rating, Corn [2, 15] | Corn plant response rating [2, 16] | Corn plant response rating [2, 6] | Plant response rating, Corn [2, 17] | Plant response rating, Corn [2, 18] | Plant response rating, Cocklebur [3, 11] | Cocklebur plant response rating [3, 14] | Plant response rating, Cocklebur [3, 15] | Cocklebur plant response rating [3, 6] | Plant response rating, Cocklebur [3, 17] | Plant response rating, Cocklebur [3, 18] | Plant response rating, Cocklebur [3, 19] | Plant response rating, B. signalgrass [4, 11] | B. signalgrass plant response rating [4, 6] | Plant response rating, B. signalgrass [4, 17]
5: B. signalgrass plant response rating [4, 16]
6: Plant response rating, Crabgrass [1, 19] | Plant response rating, B. signalgrass [4, 19]
4: Crabgrass plant response rating [1, 14] | Plant response rating, B. signalgrass [4, 15]
8: Crabgrass plant response rating [1, 16]
1: Plant response rating, Crabgrass [1, 18] | B. signalgrass plant response rating [4, 14] | B. signalgrass plant response rating [4, 18]
2: Plant response rating, Crabgrass [1, 11] | Plant response rating, Corn [2, 19]
7: Plant response rating, Crabgrass [1, 15]
3: Cocklebur plant response rating [3, 16]

CCN(C(=O)n1oc(=O)n(Cc2ccco2)c1=O)C1CCCCC1 [Compound 312]
0: Crabgrass plant response rating [1, 13] | Crabgrass plant response rating (0 to 10 scale) ([1]; Preemergence, Rate 125 g/ha) | Crabgrass plant response rating [1, 20] | Crabgrass plant response rating [1, 18] | Crabgrass plant response rating [1, 21] | Crabgrass plant response rating [1, 22] | Plant response rating, Crabgrass [1, 23] | Corn plant response rating [2, 13] | Corn plant response rating (0 to 10 scale) ([2]; Preemergence, Rate 125 g/ha) | Corn plant response rating [2, 20] | Corn plant response rating [2, 18] | Corn plant response rating [2, 21] | Corn plant response rating [2, 22] | Plant response rating, Corn [2, 23] | Corn plant response rating [2, 24] | Cocklebur plant response rating [3, 13] | Cocklebur plant response rating (0 to 10 scale) ([3]; Preemergence, Rate 125 g/ha) | Cocklebur plant response rating [3, 20] | Cocklebur plant response rating [3, 18] | Cocklebur plant response rating [3, 21] | Cocklebur plant response rating [3, 22] | Plant response rating, Cocklebur [3, 23] | Cocklebur plant response rating [3, 24] | B. signalgrass plant response rating [4, 13] | B. signalgrass plant response rating (0 to 10 scale, 0 is no effect, 10 is complete control) ([4]; Preemergence, Rate 125 g/ha) | B. signalgrass plant response rating [4, 20] | B. signalgrass plant response rating [4, 18] | B. signalgrass plant response rating [4, 21] | B. signalgrass plant response rating [4, 22] | Plant response rating, B. signalgrass [4, 23] | B. signalgrass plant response rating [4, 24]
